Measured values reported in publication PMC9386913 (Arthritis Research & Therapy, 2022).
Marks after values point to notes of the source that are not given here.

Test: Phase I multiple ascending-dose study: safety and tolerability (treatment-emergent adverse events)
Assay type: in vivo, human (healthy volunteers)
Protocol: A single-center, randomized, double-blind, placebo-controlled phase I study (NCT03554993) with a MAD component was performed in the UK between May 2018 and July 2019. Thirty-seven healthy volunteers of any race, ethnicity, or sex were enrolled. The inclusion criteria were 18 to 55 years of age inclusive, body mass index 18 to 33 kg/m^2, and physical examination by the investigator without clinically significant findings. Subjects were excluded if any clinically significant medical history, laboratory abnormality, psychiatric illness, or other condition existed that would place the subject at unacceptable risk by participating in the study. Pregnancy prevention guidance was provided as per Clinical Trial Facilitation Group recommendations. Subjects were randomly assigned to daily oral doses of CC-99677 or placebo. Subjects were dosed daily for 14 days. […] Both the investigator and subjects were blinded to the treatment arm. Safety assessments, including physical examinations, clinical laboratory tests, and collection of adverse events (AEs) were performed and graded using MedDRA version 22.0 and the US Food and Drug Administration (FDA) Toxicity Grading Scale for Healthy Adult and Adolescent Volunteers. The primary outcome of this trial was the safety and tolerability of multiple daily doses of CC-99677.

## CCOCc1cnc(Cl)nc1Oc1ccc2c(ccc3sc4c(c32)NC[C@@H](C)NC4=O)n1 [CC-99677]
60 mg daily, 14 days (n = 6)
  TEAE: Investigations: 0 n (%)
  TEAE: Muscle strain: 0 n (%)
  TEAE: Musculoskeletal and connective tissue disorders: 0 n (%)
  TEAE: Musculoskeletal pain: 0 n (%)
  TEAE: Myalgia: 0 n (%)
  TEAE: Nasopharyngitis: 0 n (%)
  TEAE: Nausea: 0 n (%)
  TEAE: Nervous system disorders: 1 (16.7) n (%)
  TEAE: Oropharyngeal pain: 0 n (%)
  TEAE: Psychiatric disorders: 0 n (%)
  TEAE: Rash pustular: 0 n (%)
  TEAE: Rectal hemorrhage: 0 n (%)
  TEAE: Reproductive system and breast disorders: 0 n (%)
  TEAE: Respiratory, thoracic, and mediastinal disorders: 0 n (%)
  TEAE: Sensation of foreign body: 0 n (%)
  TEAE: Vascular disorders: 0 n (%)
  TEAE: Vessel puncture site pain: 0 n (%)
  TEAE: Vessel puncture site reaction: 0 n (%)
120 mg daily, 14 days (n = 6)
  Subjects with ≥ 1 treatment-emergent AE: 3 (50.0) n (%)
  TEAE: Abdominal pain: 1 (16.7) n (%)
  TEAE: Alanine aminotransferase increased: 1 (16.7) n (%)
  TEAE: Aspartate aminotransferase increased: 0 n (%)
  TEAE: Back pain: 0 n (%)
  TEAE: Blood creatine phosphokinase increased: 0 n (%)
  TEAE: Catheter site related reaction: 0 n (%)
  TEAE: Chapped lips: 0 n (%)
  TEAE: Constipation: 0 n (%)
  TEAE: Diarrhea: 1 (16.7) n (%)
  TEAE: Dizziness: 0 n (%)
  TEAE: Dysmenorrhea: 0 n (%)
  TEAE: Dyspepsia: 0 n (%)
  TEAE: Ear and labyrinth disorders: 0 n (%)
  TEAE: Ear pain: 0 n (%)
  TEAE: Flushing: 0 n (%)
  TEAE: Gastrointestinal disorders: 1 (16.7) n (%)
  TEAE: General disorders and administration site conditions: 0 n (%)
  TEAE: Headache: 1 (16.7) n (%)
  TEAE: Hot flush: 0 n (%)
  TEAE: Infections and infestations: 0 n (%)
  TEAE: Injury, poisoning, and procedural complications: 0 n (%)
  TEAE: Insomnia: 0 n (%)
  TEAE: Investigations: 1 (16.7) n (%)
  TEAE: Muscle strain: 0 n (%)
  TEAE: Musculoskeletal and connective tissue disorders: 1 (16.7) n (%)
  TEAE: Musculoskeletal pain: 1 (16.7) n (%)
  TEAE: Myalgia: 0 n (%)
  TEAE: Nasopharyngitis: 0 n (%)
  TEAE: Nausea: 0 n (%)
  TEAE: Nervous system disorders: 1 (16.7) n (%)
  TEAE: Oropharyngeal pain: 1 (16.7) n (%)
  TEAE: Psychiatric disorders: 0 n (%)
  TEAE: Rash pustular: 0 n (%)
  TEAE: Rectal hemorrhage: 0 n (%)
  TEAE: Reproductive system and breast disorders: 0 n (%)
  TEAE: Respiratory, thoracic, and mediastinal disorders: 1 (16.7) n (%)
  TEAE: Sensation of foreign body: 0 n (%)
  TEAE: Vascular disorders: 0 n (%)
  TEAE: Vessel puncture site pain: 0 n (%)
  TEAE: Vessel puncture site reaction: 0 n (%)
150 mg daily, 14 days (n = 5)
  Subjects with ≥ 1 treatment-emergent AE: 2 (40.0) n (%)
  TEAE: Abdominal pain: 0 n (%)
  TEAE: Alanine aminotransferase increased: 0 n (%)
  TEAE: Back pain: 0 n (%)
  TEAE: Catheter site related reaction: 0 n (%)
  TEAE: Chapped lips: 0 n (%)
  TEAE: Constipation: 0 n (%)
  TEAE: Diarrhea: 0 n (%)
  TEAE: Dizziness: 0 n (%)
  TEAE: Dysmenorrhea: 1 (20.0) n (%)
  TEAE: Dyspepsia: 0 n (%)
  TEAE: Ear and labyrinth disorders: 0 n (%)
  TEAE: Ear pain: 0 n (%)
  TEAE: Flushing: 1 (20.0) n (%)
  TEAE: Gastrointestinal disorders: 0 n (%)
  TEAE: General disorders and administration site conditions: 0 n (%)
  TEAE: Headache: 0 n (%)
  TEAE: Hot flush: 0 n (%)
  TEAE: Infections and infestations: 0 n (%)
  TEAE: Injury, poisoning, and procedural complications: 0 n (%)
  TEAE: Insomnia: 0 n (%)
  TEAE: Investigations: 1 (20.0) n (%)
  TEAE: Muscle strain: 0 n (%)
  TEAE: Musculoskeletal and connective tissue disorders: 0 n (%)
  TEAE: Musculoskeletal pain: 0 n (%)
  TEAE: Myalgia: 0 n (%)
  TEAE: Nasopharyngitis: 0 n (%)
  TEAE: Nausea: 0 n (%)
  TEAE: Nervous system disorders: 0 n (%)
  TEAE: Oropharyngeal pain: 0 n (%)
  TEAE: Psychiatric disorders: 0 n (%)
  TEAE: Rash pustular: 0 n (%)
  TEAE: Rectal hemorrhage: 0 n (%)
  TEAE: Reproductive system and breast disorders: 1 (20.0) n (%)
  TEAE: Respiratory, thoracic, and mediastinal disorders: 0 n (%)
  TEAE: Sensation of foreign body: 0 n (%)
  TEAE: Vascular disorders: 1 (20.0) n (%)
  TEAE: Vessel puncture site pain: 0 n (%)
  TEAE: Vessel puncture site reaction: 0 n (%)
150 mg daily, 14 days (n = 5), occurred 14 days after the end of dosing following greater-than-usual physical activity, same individual as AST increase
  TEAE: Blood creatine phosphokinase increased: 1 (20.0)^a n (%)
150 mg daily, 14 days (n = 5), occurred 14 days after the end of dosing following greater-than-usual physical activity, same individual as CPK increase
  TEAE: Aspartate aminotransferase increased: 1 (20.0)^a n (%)
10 to 150 mg
  Dose dependency of the incidence of TEAEs: no apparent CC-99677 dose dependency
14 consecutive days of dosing, 5 dose-level cohorts 10 to 150 mg
  Serious treatment-emergent adverse events: no serious treatment-emergent adverse events (TEAEs) were observed
MAD study
  AEs not suspected to be related to CC-99677 (blinded investigator assessment): 69%
  Discontinuation because of safety reasons: No subject discontinued
MAD study, 10 to 150 mg daily, 14 days
  Severity grade of TEAEs (FDA toxicity grading scale): mild (grade 1)
All subjects receiving CC-99677 (n = 28), placebo 77.8%
  Subjects with TEAEs: 46.4%
